Our source for the inhibition values is patent publication US8232288B2, “Substituted benzimidazoles, benzothiazoles and benzoxazoles” (Gruenenthal GmbH, priority 2009, dated 2012).

For orientation: inhibition means the change of the read-out against control, counted positive when it falls.

Assay [1] concerns the target T1, human B1R receptor (hB1R) (Homo sapiens, UniProt P46663).
T1 construct: expressed in transfected cells; host or cells: CHO K1 cells
T1 sequence (P46663 1-353): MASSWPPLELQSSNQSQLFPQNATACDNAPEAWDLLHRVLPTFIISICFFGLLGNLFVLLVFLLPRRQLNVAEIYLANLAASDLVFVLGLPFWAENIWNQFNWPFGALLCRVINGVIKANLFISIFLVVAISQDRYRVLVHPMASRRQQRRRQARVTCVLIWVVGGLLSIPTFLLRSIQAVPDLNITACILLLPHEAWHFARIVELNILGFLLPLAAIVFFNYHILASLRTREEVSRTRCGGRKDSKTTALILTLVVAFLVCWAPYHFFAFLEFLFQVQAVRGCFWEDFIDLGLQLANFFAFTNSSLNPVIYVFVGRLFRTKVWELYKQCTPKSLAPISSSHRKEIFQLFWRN
In words: Functional investigation on the bradykinin receptor 1 (B1R), FLIPR Ca2+ assay, hB1R cells. Format: cell-based. In outline:
(§1)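 Stably transfected CHO K1 cells expressing human or rat B1R were loaded with Fluo-4, and Ca2+ fluorescence was read on a FLIPR. Compound (10 μM) was added first to measure activation. After 10–20 min, agonist at EC80 was added (Lys-Des-Arg9-bradykinin for hB1R, Des-Arg9-bradykinin for rB1R) to give % inhibition. IC50 values came from concentration series.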

Assay [2] has as its target T2, B1R receptor of the rat (rB1R) (Rattus norvegicus, UniProt P97583).
T2 construct: expressed in transfected cells; host or cells: CHO K1 cells
T2 sequence (P97583 1-337): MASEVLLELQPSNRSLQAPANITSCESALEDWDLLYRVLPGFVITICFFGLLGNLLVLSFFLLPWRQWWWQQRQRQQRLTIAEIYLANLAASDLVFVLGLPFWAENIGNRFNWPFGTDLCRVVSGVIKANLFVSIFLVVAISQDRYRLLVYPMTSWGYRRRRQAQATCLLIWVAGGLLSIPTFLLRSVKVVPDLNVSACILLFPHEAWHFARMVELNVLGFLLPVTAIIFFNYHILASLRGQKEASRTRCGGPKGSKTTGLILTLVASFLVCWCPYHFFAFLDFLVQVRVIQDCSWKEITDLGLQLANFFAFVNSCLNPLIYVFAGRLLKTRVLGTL
The assay is described as follows: Functional investigation on the bradykinin receptor 1 (B1R), FLIPR Ca2+ assay, rB1R cells. In kind it is cell-based. In outline: as §1

Turning to `COc1cc(C)c(S(=O)(=O)N(C)C(C)c2nc3cccc(C(=O)N4CCC5(CC4)CCN(C(=O)c4cc(C(C)(C)C)nn4C)CC5)c3[nH]2)c(C)c1` (centres unmarked) [I_CC-54, N-[1-[7-[9-(5-tert-Butyl-2-methyl-2H-pyrazole-3-carbonyl)-3,9-diazaspiro[5.5]undecane-3-carbonyl]-1H-benzoimidazol-2-yl]-ethyl]-4-methoxy-N,2,6-trimethyl-benzenesulfonic acid amide], the inhibition at 10 µM worked out at 63% in assay [1] and 92% in assay [2].
`COc1cc(C)c(S(=O)(=O)N(C)C2(c3nc4cccc(C(=O)N5CCC6(CC5)CCN(c5ccncc5)CC6)c4[nH]3)CC2)c(C)c1` [I_12, 4-methoxy-N,2,6-trimethyl-N-[1-[7-(9-pyridin-4-yl-3,9-diazaspiro[5.5]undecane-3-carbonyl)-1H-benzoimidazol-2-yl]-cyclopropyl]-benzenesulfonic acid amide]: the inhibition at 10 µM in assay [1] was determined as 98%; in assay [2] it was 92%.
On to `Cc1cccc(Cl)c1S(=O)(=O)N(C)Cc1nc2ccc(C(=O)N3CCC4(CC3)CCN(c3ccncc3)CC4)cc2[nH]1` [I_23, 2-chloro-N,6-dimethyl-N-[[6-(9-pyridin-4-yl-3,9-diazaspiro[5.5]undecane-3-carbonyl)-1H-benzoimidazol-2-yl]-methyl]-benzenesulfonic acid amide], for which the inhibition at 10 µM was 100% in assay [1] and 101% in assay [2].
On to `O=C1c2c(Cl)cccc2CN1Cc1nc2cccc(C(=O)N3CCC4(CC3)CCN(c3ccncc3)CC4)c2[nH]1` [I_CC-12, 7-chloro-2-[[7-(3-pyridin-4-yl-3,9-diazaspiro[5.5]undecane-9-carbonyl)-1H-benzoimidazol-2-yl]-methyl]-2,3-dihydro-isoindol-1-one], for which the inhibition at 10 µM in assay [1] is 100%; in assay [2] it was 101%.
`COc1cc(C)c(S(=O)(=O)N(C)Cc2nc3cccc(C(=O)N4CCC5(CCC(N6CCC6)CC5)CC4)c3[nH]2)c(C)c1` [I_04, N-[[7-[9-(azetidin-1-yl)-3-azaspiro[5.5]undecane-3-carbonyl]-1H-benzoimidazol-2-yl]-methyl]-4-methoxy-N,2,6-trimethyl-benzenesulfonic acid amide]: the inhibition at 10 µM was 99% in assay [1] and 97% in assay [2].
Take `COc1cc(C)c(S(=O)(=O)N(C)Cc2nc3c(C(=O)N4CCC5(CC4)CCN(c4ccncc4)CC5)cccc3n2C)c(C)c1` [I_20, 4-methoxy-N,2,6-trimethyl-N-[[1-methyl-4-(9-pyridin-4-yl-3,9-diazaspiro[5.5]undecane-3-carbonyl)-1H-benzoimidazol-2-yl]-methyl]-benzenesulfonic acid amide]: the inhibition at 10 µM in assay [1] was 98%; in assay [2], 30%.
Turning to `COc1cc(C)c(S(=O)(=O)N(C)C(C)c2nc3cccc(C(=O)N4CCC5(CCN(C(=O)CC(C)(C)C)CC5)CC4)c3[nH]2)c(C)c1` (centres unmarked) [I_CC-51, N-[1-[7-[9-(3,3-Dimethyl-butanoyl)-3,9-diazaspiro[5.5]undecane-3-carbonyl]-1H-benzoimidazol-2-yl]-ethyl]-4-methoxy-N,2,6-trimethyl-benzenesulfonic acid amide], the results for the inhibition at 10 µM in assay [1] and in assay [2] were 78% and 88%, respectively.
On the same counts, the results for `CN(Cc1nc2ccc(C(=O)N3CCC4(CC3)CCN(c3ccncc3)CC4)cc2[nH]1)S(=O)(=O)c1ccccc1C(F)(F)F` [I_24, N-methyl-N-[[6-(9-pyridin-4-yl-3,9-diazaspiro[5.5]undecane-3-carbonyl)-1H-benzoimidazol-2-yl]-methyl]-2-(trifluoromethyl)-benzenesulfonic acid amide] are 100% and 102%.
The corresponding values for `COc1cc(C)c(S(=O)(=O)N(C)C(C)c2nc3cccc(C(=O)N4CCC5(CCN(Cc6cccc(C#N)c6)CC5)CC4)c3[nH]2)c(C)c1` (centres unmarked) [I_CC-44, N-[1-[7-[9-[(3-Cyano-phenyl)-methyl]-3,9-diazaspiro[5.5]undecane-3-carbonyl]-1H-benzoimidazol-2-yl]-ethyl]-4-methoxy-N,2,6-trimethyl-benzenesulfonic acid amide] are 84% and 101%.
The corresponding values for `COc1cc(C)c(S(=O)(=O)N(C)C(C)c2nc3cccc(C(=O)N4CCC5(CCN(Cc6ccc(OC)c(F)c6)CC5)CC4)c3[nH]2)c(C)c1` (centres unmarked) [I_CC-33, N-[1-[7-[9-[(3-Fluoro-4-methoxy-phenyl)-methyl]-3,9-diazaspiro[5.5]undecane-3-carbonyl]-1H-benzoimidazol-2-yl]-ethyl]-4-methoxy-N,2,6-trimethyl-benzenesulfonic acid amide] are 80% and 89%.
Turning to `COc1cc(C)c(S(=O)(=O)N(C)C(C)c2nc3cccc(C(=O)N4CCC5(CCN(C(=O)c6cccnc6SC)CC5)CC4)c3[nH]2)c(C)c1` (centres unmarked) [I_CC-48, 4-Methoxy-N,2,6-trimethyl-N-[1-[7-[9-(2-methylsulfanyl-pyridine-3-carbonyl)-3,9-diazaspiro[5.5]undecane-3-carbonyl]-1H-benzoimidazol-2-yl]-ethyl]-benzenesulfonic acid amide], the values for the inhibition at 10 µM in assay [1] and in assay [2] were 61% and 89%, respectively.
Take `CN(Cc1nc2cccc(C(=O)N3CCC4(CC3)CCN(c3ccncc3)CC4)c2[nH]1)C(=O)c1sccc1Cl` [I_CC-05, 3-chloro-N-methyl-N-[[7-(3-pyridin-4-yl-3,9-diazaspiro[5.5]undecane-9-carbonyl)-1H-benzoimidazol-2-yl]-methyl]-thiophene-2-carboxylic acid amide]: the inhibition at 10 µM in assay [1] came out at 30%; in assay [2] it was 93%.
The corresponding values for `COc1cc(C)c(S(=O)(=O)N(C)C(C)c2nc3cccc(C(=O)N4CCC5(CCN(Cc6ccc(F)c(F)c6)CC5)CC4)c3[nH]2)c(C)c1` (centres unmarked) [I_CC-30, N-[1-[7-[9-[(3,4-Difluoro-phenyl)-methyl]-3,9-diazaspiro[5.5]undecane-3-carbonyl]-1H-benzoimidazol-2-yl]-ethyl]-4-methoxy-N,2,6-trimethyl-benzenesulfonic acid amide] are 63% and 99%.
`COc1cc(C)c(S(=O)(=O)N(C)C(C)c2nc3cccc(C(=O)N4CCC5(CCN(Cc6cc(F)ccc6F)CC5)CC4)c3[nH]2)c(C)c1` (centres unmarked) [I_CC-31, N-[1-[7-[9-[(2,5-Difluoro-phenyl)-methyl]-3,9-diazaspiro[5.5]undecane-3-carbonyl]-1H-benzoimidazol-2-yl]-ethyl]-4-methoxy-N,2,6-trimethyl-benzenesulfonic acid amide]: the results for the inhibition at 10 µM in assay [1] and in assay [2] were 63% and 104%, respectively.
As to `COc1cc(C)c(S(=O)(=O)N(C)c2nc3ccc(C(=O)N4CCC5(CC4)CCN(c4ccncc4)C5)cc3n2C)c(C)c1` [I_CC-18, 4-methoxy-N,2,6-trimethyl-N-[1-methyl-6-(3-pyridin-4-yl-3,8-diazaspiro[4.5]decane-8-carbonyl)-1H-benzoimidazol-2-yl]-benzenesulfonic acid amide], the inhibition at 10 µM in assay [1] came to 39%; in assay [2] it was 48%.
On the same counts, the results for `COc1cc(C)c(S(=O)(=O)N(C)c2nc3cccc(C(=O)N4CCC5(CC4)C(=O)NCC5c4ccncc4)c3n2C)c(C)c1` (centres unmarked) [I_CC-16, 4-methoxy-N,2,6-trimethyl-N-[1-methyl-7-(4-oxo-1-pyridin-4-yl-3,8-diazaspiro[4.5]decane-8-carbonyl)-1H-benzoimidazol-2-yl]-benzenesulfonic acid amide] are 72% and 82%.
